Measurements as given in publication PMC10617569, “The Ustilago maydis AA10 LPMO is active on fungal cell wall chitin” (Applied and Environmental Microbiology, 2023).

Target: T1, UmAA10_cd (Mycosarcoma maydis, UniProt A0A0D1CHL0)
T1 construct: gene UMAG_05439; catalytic domain only; C-terminal extension removed between Gly203 and Gly204; C-terminal (His)6-tag; made in Pichia pastoris SuperMan5; copper loaded
Test: Amplex red / HRP assay of H2O2 production, absorbance at […] nm
Format: biochemical
Conditions: reductant of the LPMO oxidase reaction, 50 µM ascorbic acid with O2; 1 µM enzyme; sodium phosphate 50 mM pH 7.0; 23°C

T1 sequence (A0A0D1CHL0 33-203): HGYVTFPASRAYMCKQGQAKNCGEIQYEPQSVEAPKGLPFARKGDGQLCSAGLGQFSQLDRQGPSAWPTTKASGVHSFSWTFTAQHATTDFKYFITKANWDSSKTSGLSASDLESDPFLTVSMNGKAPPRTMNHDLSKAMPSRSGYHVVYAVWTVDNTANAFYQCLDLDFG

With `O=C1O[C@H]([C@@H](O)CO)C(O)=C1O` [ascorbic acid] the “Amplex red / HRP assay of H2O2 production, absorbance at 575 nm” value was “Using ascorbic acid (AscA) as a reductant, we found that UmAA10_cd produces H2O2”.
